The values below come from patent publication US11236055B2 (Venenum Biodesign, LLC, priority 2016, dated 2022).

Series [1] addresses T1, human TGR5 receptor (Homo sapiens, UniProt Q8TDU6).
T1 construct: host or cells: CHO-K1 (hTGR5-CHO cells)
T1 sequence (Q8TDU6 1-330): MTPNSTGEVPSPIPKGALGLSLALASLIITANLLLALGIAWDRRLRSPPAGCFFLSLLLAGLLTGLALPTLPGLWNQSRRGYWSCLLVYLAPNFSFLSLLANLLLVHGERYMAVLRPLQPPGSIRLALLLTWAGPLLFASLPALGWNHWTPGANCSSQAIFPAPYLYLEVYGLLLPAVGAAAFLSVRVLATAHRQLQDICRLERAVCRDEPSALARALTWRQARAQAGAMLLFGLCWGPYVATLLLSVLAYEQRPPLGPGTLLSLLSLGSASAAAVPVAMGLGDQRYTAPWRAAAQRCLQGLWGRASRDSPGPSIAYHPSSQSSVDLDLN
Briefly: Human TGR5 cAMP production assay. The class given is cell-based. The settings on record: human TGR5, luminescent cAMP assay; coded A-D; read-out: Human TGR5 Lum. cAMP Activity (EC50). The method in brief: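 Intracellular cAMP read by luminescent enzyme-complementation (XS+) after overnight development, following 1 h room-temperature compound treatment of hTGR5-CHO-K1 cells in IBMX plus anti-cAMP antibody. Compounds tested as half-log dilution series; EC50 derived.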
A general note: cAMP levels reflect the balance of adenylyl cyclase and phosphodiesterase activity.

Series [2] concerns the target T2, mouse TGR5 receptor (Mus musculus, UniProt Q80SS6).
T2 construct: expressed in transfected cells; host or cells: HEK293-EBNA (293 c18, ATCC CRL10852), Hygromycin B selection
T2 sequence (Q80SS6 1-329): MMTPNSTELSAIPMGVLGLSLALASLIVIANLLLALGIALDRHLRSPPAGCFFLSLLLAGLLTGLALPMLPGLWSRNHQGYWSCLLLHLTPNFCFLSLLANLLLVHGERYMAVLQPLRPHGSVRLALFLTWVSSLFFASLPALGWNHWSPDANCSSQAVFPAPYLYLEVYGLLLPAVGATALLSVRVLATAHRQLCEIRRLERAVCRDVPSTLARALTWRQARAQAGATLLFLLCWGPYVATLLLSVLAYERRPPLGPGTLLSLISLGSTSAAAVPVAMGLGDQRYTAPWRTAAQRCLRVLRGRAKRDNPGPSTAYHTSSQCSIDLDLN
Kind of series: Mouse TGR5 cAMP production assay (HTRF, Cisbio cAMP HiRange). Type of series: cell-based. The settings on record: HEK293-EBNA cells overexpressing mouse TGR5, HTRF cAMP HiRange; coded A-D. The method in brief: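 cAMP read by HTRF competition after 1 h room-temperature compound exposure of mouse TGR5-overexpressing HEK293-EBNA cells. Cells were suspended in serum-free DMEM containing 500 μM IBMX; compounds ran as 12-point half-log dilutions in duplicate; EC50 derived.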

Series [3] in a line: Pharmacokinetic profile in mice. Type of series: in vivo. Conditions: mouse; fasted male Hilltop mice, 10 mg/kg oral gavage, plasma, mean of three mice. Here is the method:
Pharmacokinetic Profile in Mice
In this series of studies, the pharmacokinetic profile characteristics of compounds of the present invention were evaluated. The plasma concentration levels of the compounds were monitored in the blood stream (i.e., plasma) after oral gavage using Cmax, and area under the curve (AUC).
8 week old male Hilltop mice were fasted overnight. Animals were randomized into groups (n=9) by body weight. Mice were dosed with 10 mg/kg compound (in 20% PEG400/80% 0.5% carboxymethylcellulose (medium viscosity)+0.25% Tween-80) at a volume of 10 mL/kg through oral gavage. Blood was collected via orbital bleeding at 0, 0.25, 0.5, 1, 2, and 4 h post-dose, with no one mouse having more than 3 blood draws. Blood was collected in EDTA coated tubes. Samples were stored at −20° C. until analysis.
Quantitation of compound levels in plasma was accomplished by LC-MS/MS analysis. Standard curve and quality control samples were prepared in male CD-1 mouse plasma containing EDTA K^2+ as an anticoagulant at final concentrations ranging from 500 to 0.1 ng/mL. The plasma samples, calibration curve standards, and quality control samples were prepared in an identical method in a 96-well deep plate (1 mL) with a quenching solution (1:1 mixed acetonitrile:methanol containing the internal standard Reserpine @ 400 ng/mL). Low volume samples were supplemented with CD-1 mouse plasma. The plate was mixed on multi-tube votex for 1 min and centrifuged at 4000 rpm for 30 min at 4° C. (Sorvall® Super T21) before LC-MS/MS analysis. LC conditions were developed and optimized based on each compound as needed. The outlet of the column was coupled to AB Sciex 4000 QTrap Mass Spectrometer (AB Sciex, Brugg Switzerland). Detection was carried out using multiple reaction monitoring mode with positive-ion detection focusing. The pharmacokinetic parameters were derived from the plasma-time data and calculated using the standard non-compartmental method with WinNonlin (Pharsight, Mountain View, Calif.) or PK Solver (Comp. Meth. Prog. Biomed. (2010), 99, 306-314).
Values reported are the mean plasma concentration of three mice.

The target of series [4] is T2, mouse TGR5 receptor. Kind of series: Mouse TGR5 cAMP production assay (luminescent, DiscoveRx cAMP XS+). Type of series: cell-based. The settings on record: HEK293-EBNA cells overexpressing mouse TGR5, luminescent cAMP XS+; coded A-D; read-out: Mouse TGR5 Lum. cAMP Activity (EC50). The text has this: Mouse TGR5 cAMP Production Assay
We evaluated compounds of the present invention for their ability to induce cAMP production in HEK-EBNA cells overexpressing the mouse TGR5 receptor. Human embryonic kidney cells (HEK293-EBNA) stably expressing mouse TGR5 receptor were established using the following procedure. Specifically, a commercially-obtained gene encoding mouse TGR5 (accession number BC116914) from Thermo Scientific (Waltham, Mass.) was cloned into an episomal expression vector. The resulting expression plasmid was then transfected into 293 c18 (ATCC® CRL10852™) cells, which express the Epstein-Barr virus nuclear antigen EBNA1 and can support the replication of episomal vectors. Selection for the plasmid was maintained with Hygromycin B. Cells were cultured and maintained in DMEM (Sigma; cat #6429) supplemented with 10% Fetal Bovine Serum, 1% penicillin/streptomycin, 2 mM L-alanine L-glutamine (GlutaMax), and 250 μg/mL Hygromycin.
Two cAMP production assays were developed.
1. Luminescent cAMP Production Assay
In this first cAMP production assay, the cAMP production was measured using DiscoveRx's cAMP XS+ kit following the manufacturer's recommended protocol.
Briefly, HEK293-EBNA cells stably overexpressing mouse TGR5 were harvested using non-enzymatic cell dissociation buffer (Sigma-Aldrich, St. Louis, Mo.), spun down, then resuspended in serum-free DMEM with 500 μM IBMX at a density of 1.25×10^6 cells/mL. 500 μL of cAMP antibody solution was added to […] of cell suspension and incubated at room temperature for 20 min.
Test compounds were serially diluted (half-log dilutions) in DMSO and then further diluted 1:50 in PBS, 10 mM HEPES buffer. 2 μL of serially diluted compound was added to a 384-well low volume plate (Greiner cat #784075) and centrifuged briefly. 2 μL of the cell/cAMP antibody mixture was then added to each compound-containing well and allowed to incubate at room temperature for one (1) hour. Following incubation, the XS+ kits' ED/Lysis/CL Substrate Working Solution was prepared following the manufacturer's recommended protocol and 4 μL was added to each well of the plate. The plate was then incubated for one (1) hour at room temperature. Following incubation, 4 μL of (Enzyme Acceptor) EA reagent was added to the plate and allowed to incubate overnight at room temperature. Luminescent signal was then detected using the Viewlux instrument (Perkin-Elmer, Waltham, Mass.).
In Table 33, EC50 values for both human and mouse cells were determined according to the TGR5 cAMP assays described above.

Where only a bound is given, the exact number is not on record here.

By EC50 is commonly meant the concentration at which the effect is half-maximal. As a reminder, the Cmax is the highest concentration seen after dosing. With `CCc1cnccc1-c1cccc(C2CN(C(=O)CCCC(=O)O)CCN2S(=O)(=O)c2cccc(Cl)c2C)c1` (stereo not drawn) [Compound 46AA, 5-(4-((3-chloro-2-methylphenyl)sulfonyl)-3-(3-(3-ethylpyridin-4-yl)phenyl)piperazin-1-yl)-5-oxopentanoic acid], the EC50 in series [1] and in series [2] was less than 100 nM in each case. In series [3], this compound gave a Cmax of 1.6 ng/mL.

For `CCc1cnccc1-c1cccc([C@H](C)N(CCCCC(=O)NCCS(=O)(=O)O)S(=O)(=O)c2cccc(Cl)c2C)c1` [Compound 20AS, (S)-2-(5-(3-chloro-N-(1-(3-(3-ethylpyridin-4-yl)phenyl)ethyl)-2-methylphenylsulfonamido)pentanamido)ethanesulfonic acid], the EC50 in series [1] and in series [2] was less than 100 nM in each case. In addition, the peak level in series [3] (Cmax) was 2.3 ng/mL.

Take `CNC(=O)C[C@H](NS(=O)(=O)c1ccccc1C(F)(F)F)c1cccc(-c2ccncc2C)c1` [Compound 5AZ, (S)-N-methyl-3-(3-(3-methylpyridin-4-yl)phenyl)-3-(2-(trifluoromethyl)phenylsulfonamido)propanamide]: the EC50 in series [1] and in series [2] was 100 to 999 nM each time. In series [3], this compound registered a maximum concentration (Cmax) of 2330 ng/mL.

On to `Cc1cnccc1-c1cccc(C(C)(C)N(CCCC(=O)NCC[N+](C)(C)C)S(=O)(=O)c2cccc(Cl)c2C)c1` [Compound 27AD, 2-(4-(3-chloro-2-methyl-N-(2-(3-(3-methylpyridin-4-yl)phenyl)propan-2-yl)phenylsulfonamido)butanamido)-N,N,N-trimethylethanaminium], for which the EC50 in series [1] is less than 100 nM; in series [2], 100 to 999 nM. The compound further displayed a Cmax in series [3] of 25.4 ng/mL.

Regarding `Cc1cnccc1-c1cccc(C(C)(C)N(CCCNC(=O)CS(=O)(=O)O)S(=O)(=O)c2cccc(Cl)c2C)c1` [Compound 31AB, 2-((3-(3-chloro-2-methyl-N-(2-(3-(3-methylpyridin-4-yl)phenyl)propan-2-yl)phenylsulfonamido)propyl)amino)-2-oxoethanesulfonic acid], the EC50 in series [1] and in series [2] was less than 100 nM each time. In addition, in series [3], the Cmax amounted to 35.8 ng/mL.

`Cc1cnccc1-c1cccc(C(C)(C)N(CCCN/C(=N\C#N)NCCC(=O)O)S(=O)(=O)c2cccc(Cl)c2C)c1` [Compound 25, (E)-3-(3-(3-((3-chloro-2-methyl-N-(2-(3-(3-methylpyridin-4-yl)phenyl)propan-2-yl)phenyl)sulfonamido)propyl)-2-cyanoguanidino)propanoic acid]: the EC50 in series [1] and in series [2] was less than 100 nM each time. The highest concentration (Cmax) in series [3] amounted to 3.1 ng/mL.

For `Cc1cnccc1-c1cccc([C@H](C)N(CCCC(=O)NCCS(=O)(=O)O)S(=O)(=O)c2cccc(Cl)c2C)c1` [Compound 21AG, (S)-2-(4-(3-chloro-2-methyl-N-(1-(3-(3-methylpyridin-4-yl)phenyl)ethyl)phenylsulfonamido)butanamido)ethanesulfonic acid], the EC50 in series [1] and in series [2] was less than 100 nM in each case. The peak concentration (Cmax) in series [3] is 14.3 ng/mL.

Regarding `CC(C)(NS(=O)(=O)c1cccc(C(F)(F)F)c1)c1cccc(-c2ccncc2Cl)c1` [Compound 1AF], the half-maximal effective concentration (EC50) in series [1] and in series [4] was 100 to 999 nM in each case.

Consider `CC(C)(NS(=O)(=O)c1cccc(C(F)(F)F)c1)c1cccc(-c2ccncc2F)c1` [Compound 1AE], for which the values for the EC50 in series [1] and in series [4] were less than 100 nM and 1000 to 30000 nM, respectively.

On to `O=S(=O)(NCc1cccc(-c2ccncc2)c1)c1cccc(C(F)(F)F)c1` [Compound 1AR], for which the EC50 was 100 to 999 nM in series [1] and 1000 to 30000 nM in series [4].

As to `Cc1noc(C)c1-c1cccc(CNS(=O)(=O)c2ccc(Cl)c(C(F)(F)F)c2)c1` [Compound 2AD], the EC50 in series [1] was 1000 to 30000 nM; in series [4], greater than 30000 nM.

Turning to `O=[N+]([O-])c1cccc(S(=O)(=O)NCc2cccc(-c3ccncc3)c2)c1` [Compound 2AN], the EC50 in series [1] and in series [4] was 1000 to 30000 nM throughout.

For the compound `COc1cnccc1-c1ccnc(CNS(=O)(=O)c2cccc(C(F)(F)F)c2)c1` [Compound 1BR], the 50% effective concentration (EC50) in series [1] and in series [4] was 1000 to 30000 nM throughout.

On to `Cc1ccccc1S(=O)(=O)NCc1cccc(-c2ccncc2)c1` [Compound 2AP], for which the 50% effective concentration (EC50) in series [1] is 1000 to 30000 nM; in series [4] it was greater than 30000 nM.

With `C[C@H](NS(=O)(=O)c1cccc(C(F)(F)F)c1)c1cccc(-c2ccncc2)c1` [Compound 1AW], the concentration for a half-maximal effect (EC50) in series [1] fell in the range of 100 to 999 nM; in series [4], 1000 to 30000 nM.

In the case of `O=S(=O)(NCc1cccc(-c2cc(C(F)(F)F)ncn2)c1)c1cccc(C(F)(F)F)c1` [Compound 1BJ], the EC50 was 1000 to 30000 nM in series [1] and greater than 30000 nM in series [4].

As for `Cc1noc(C)c1-c1cccc(CNS(=O)(=O)c2ccc(F)c(C(F)(F)F)c2)c1` [Compound 2AE], the EC50 is 1000 to 30000 nM in series [1] and greater than 30000 nM in series [4].

Turning to `COc1cnccc1-c1cccc(C(C)(C)NS(=O)(=O)c2cc(Br)cc(C(F)(F)F)c2)c1` [Compound 2BB], the EC50 in series [1] and in series [4] was 100 to 999 nM each time.

In the case of `CCC(NS(=O)(=O)c1cccc(C(F)(F)F)c1)c1cccc(-c2ccncc2C)c1` (racemic) [Compound 5AU, (+/−)N-(1-(3-(3-methylpyridin-4-yl)phenyl)propyl)-3-(trifluoromethyl)benzenesulfonamide], the concentration for a half-maximal effect (EC50) in series [1] and in series [4] was 100 to 999 nM in each case.
